Test results taken from ChEMBL document CHEMBL4229400, “Covalent inhibitors of nicotinamide N-methyltransferase (NNMT) provide evidence for target engagement challenges in situ” (Bioorg Med Chem Lett, 2018).
Substitutions are numbered along the chain they refer to. The source made the active and inactive calls. The rule behind the calls is not given here.

How the values were obtained:
[1] = target: T1, Nicotinamide N-methyltransferase (Homo sapiens) (UniProt P40261); assay: Binding affinity to NNMT C165 residue in human 786-O cell soluble proteomic lysate at 5 uM incubated for 1 hr followed by cell lysis by IA-alkyne probe based isoTOP-ABPP analysis relative to control
T1 sequence (whole entry): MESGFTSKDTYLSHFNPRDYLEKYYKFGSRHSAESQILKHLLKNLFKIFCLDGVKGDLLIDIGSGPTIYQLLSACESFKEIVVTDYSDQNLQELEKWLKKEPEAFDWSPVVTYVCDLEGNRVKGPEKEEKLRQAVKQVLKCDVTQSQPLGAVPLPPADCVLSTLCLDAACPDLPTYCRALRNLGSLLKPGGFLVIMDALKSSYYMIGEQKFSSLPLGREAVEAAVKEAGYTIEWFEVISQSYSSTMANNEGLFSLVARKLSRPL

[2] = target: T2, 5'-nucleotidase domain-containing protein 2 (Homo sapiens) (UniProt Q9H857); assay: Binding affinity to NT5DC2 cysteine residue in human 786-O cell soluble proteomic lysate at 5 uM incubated for 1 hr followed by cell lysis by IA-alkyne probe based isoTOP-ABPP analysis
T2 sequence (whole entry): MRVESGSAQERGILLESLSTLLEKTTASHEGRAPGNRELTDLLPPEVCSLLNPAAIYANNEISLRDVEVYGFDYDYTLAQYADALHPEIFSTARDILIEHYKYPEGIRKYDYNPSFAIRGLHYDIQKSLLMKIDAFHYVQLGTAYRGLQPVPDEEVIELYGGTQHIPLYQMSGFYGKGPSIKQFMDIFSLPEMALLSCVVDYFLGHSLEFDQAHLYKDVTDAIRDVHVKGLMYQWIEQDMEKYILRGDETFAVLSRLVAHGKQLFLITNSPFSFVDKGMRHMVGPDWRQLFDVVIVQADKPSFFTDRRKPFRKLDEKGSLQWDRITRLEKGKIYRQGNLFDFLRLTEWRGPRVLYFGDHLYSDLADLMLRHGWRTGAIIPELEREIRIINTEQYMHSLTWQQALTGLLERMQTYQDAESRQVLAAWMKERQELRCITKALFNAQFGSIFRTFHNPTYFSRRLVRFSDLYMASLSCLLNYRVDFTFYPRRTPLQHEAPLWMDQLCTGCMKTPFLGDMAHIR

[3] = target: T3, Nicotinamide N-methyltransferase (Homo sapiens, UniProt P40261); assay: Inhibition of NNMT in human 786-O cell lysate using d4-nicotinamide as substrate pretreated for 1 hr at 3 mins post 10 uM SAM addition followed by substrate addition measured after 15 to 30 mins by LC-MS analysis
T3 sequence (P40261 whole entry): T1 sequence (whole entry)

[4] = target: T3, Nicotinamide N-methyltransferase; assay: Inhibition of NNMT in human 786-O cell lysate using d4-nicotinamide as substrate pretreated for 1 hr at 3 mins post 40 uM SAM addition followed by substrate addition measured after 15 to 30 mins by LC-MS analysis
[5] = target: T1, Nicotinamide N-methyltransferase (Homo sapiens); assay: Inhibition of SAH-rhodamine binding to NNMT in human 786-O cell soluble proteomic lysate preincubated for 1 hr followed by SAH-rhodamine addition measured after 5 mins by Gel-based ABPP analysis
[6] = target: T3, Nicotinamide N-methyltransferase; assay: Inhibition of NNMT in human 786-O cell lysate using d4-nicotinamide as substrate pretreated for 1 hr at 3 mins post 80 uM SAM addition followed by substrate addition measured after 15 to 30 mins by LC-MS analysis
[7] = test system: T4, Nicotinamide N-methyltransferase (Homo sapiens), P40261 [C165A]; assay: Inhibition of NNMT C165A mutant in human 786-O cell lysate using d4-nicotinamide as substrate preincubated for 1 hr followed by substrate and SAM addition measured after 15 to 30 mins by LC-MS analysis
T4 sequence (whole entry): T1 sequence (whole entry) with C165A

[8] = target: T3, Nicotinamide N-methyltransferase; assay: Inhibition of NNMT in human 786-O cell lysate using d4-nicotinamide as substrate pretreated for 1 hr at 3 mins post 20 uM SAM addition followed by substrate addition measured after 15 to 30 mins by LC-MS analysis
[9] = target: T1, Nicotinamide N-methyltransferase (Homo sapiens); assay: Binding affinity to NNMT C165 residue in human 786-O cell soluble proteomic lysate at 1 to 5 uM incubated for 1 hr followed by cell lysis by IA-alkyne probe based isoTOP-ABPP analysis
[10] = target: T5, Glutathione S-transferase omega-1 (Homo sapiens) (UniProt P78417); assay: Binding affinity to GSTO1 C32 residue in human 786-O cell lysate at 5 uM incubated for 1 hr followed by cell lysis by IA-alkyne probe based isoTOP-ABPP analysis
T5 sequence (whole entry): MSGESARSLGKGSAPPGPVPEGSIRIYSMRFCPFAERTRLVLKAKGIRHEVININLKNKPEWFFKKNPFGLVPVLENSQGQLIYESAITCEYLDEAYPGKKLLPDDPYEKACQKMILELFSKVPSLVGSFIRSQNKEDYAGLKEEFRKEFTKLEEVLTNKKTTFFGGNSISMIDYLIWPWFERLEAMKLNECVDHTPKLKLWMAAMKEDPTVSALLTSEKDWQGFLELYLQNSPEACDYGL

[11] = target: T6, Thioredoxin domain-containing protein 17 (Homo sapiens) (UniProt Q9BRA2); assay: Binding affinity to TXNDC17 cysteine residue in human 786-O cell soluble proteomic lysate at 5 uM incubated for 1 hr followed by cell lysis by IA-alkyne probe based isoTOP-ABPP analysis
T6 sequence (whole entry): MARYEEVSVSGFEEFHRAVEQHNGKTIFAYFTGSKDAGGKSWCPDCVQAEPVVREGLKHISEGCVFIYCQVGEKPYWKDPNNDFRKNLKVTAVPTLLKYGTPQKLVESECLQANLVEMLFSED

[12] = target: T1, Nicotinamide N-methyltransferase (Homo sapiens); assay: Inhibition of NNMT in human 786-O cell lysate using d4-nicotinamide as substrate preincubated for 1 hr followed by substrate and SAM addition measured after 15 to 30 mins by LC-MS analysis
[13] = target: T1, Nicotinamide N-methyltransferase (Homo sapiens); assay: Inhibition of SAH-rhodamine binding to NNMT in human 786-O cell soluble proteomic lysate assessed as ratio of observed rate constant to test compound concentration preincubated for 10 to 40 mins followed by SAH-rhodamine addition measured after 5 mins by Gel-based ABPP analysis
[14] = target: Receptor expression-enhancing protein 5 (Homo sapiens) (UniProt Q00765); assay: Binding affinity to REEP5 cysteine residue in human 786-O cell soluble proteomic lysate at 5 uM incubated for 1 hr followed by cell lysis by IA-alkyne probe based isoTOP-ABPP analysis
Sequence of Receptor expression-enhancing protein 5 (Homo sapiens) (Q00765 whole entry): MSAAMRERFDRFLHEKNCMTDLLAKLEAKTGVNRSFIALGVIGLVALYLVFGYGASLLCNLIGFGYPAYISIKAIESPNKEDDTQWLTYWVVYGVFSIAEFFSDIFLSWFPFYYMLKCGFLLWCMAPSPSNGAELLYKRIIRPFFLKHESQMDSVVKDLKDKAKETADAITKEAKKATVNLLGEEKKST

Activity [1] | Activity [2] | IC50 [3] | IC50 [4] | inhibition [5] | IC50 [6] | inhibition [7] | IC50 [8] | Activity [9] | Activity [10] | Activity [11] | inhibition [12] | Ratio [13] | Activity [14] | SMILES
inactive | Active | – | – | – | – | – | – | – | – | – | – | – | – | O=C(Nc1cccnc1Cl)c1cc(N(CCCc2ccccc2)C(=O)CCl)cc(C(F)(F)F)c1
– | – | 4 µM | 10 µM | Dose-dependent effect | 39 µM | inactive | 6.2 µM | Active | Active | Active | Dose-dependent effect | 285 M⁻¹ s⁻¹ | Active | CC(C)CCN(C(=O)CCl)c1cc(C(=O)NCc2cccc([N+](=O)[O-])c2)cc(C(F)(F)F)c1
